Source: article PMC11356900, “Synthesis, Structural Properties and Biological Activities of Novel Hydrazones of 2-, 3-, 4-Iodobenzoic Acid” (Molecules, 2024)
≈ marks a conversion by molar mass, not a printed value. Like-named read-outs stand apart in the source and are kept apart here.

Tests used:
Gram-positive bacteria = assay: Broth microdilution, summary over reference Gram-positive bacteria; type: cell-based; conditions: for antibacterial activity in words: reference Gram-positive bacteria / studied bacteria
Source text: (§1) Procedures of in vitro antimicrobial assays are described in Supplementary Materials.
(§2) 2. Microbiology – in vitro antimicrobial activity assays […]
(§3) using the broth microdilution method according to the European Committee on Antimicrobial Susceptibility Testing (EUCAST) and Clinical and Laboratory Standards Institute guidelines against a panel of reference and clinical or saprophytic strains of mi croorganisms, including the Gram-positive bacteria: Staphylococcus aureus ATCC 43300 (Methi-cillin Resistant S. aureus – MRSA), Staphylococcus aureus ATCC 29213 (Methicillin Susceptible S. aureus – MSSA), Staph-ylococcus epidermidis ATCC 12228, Micrococcus luteus ATCC 10240, Bacillus subtilis ATCC 6633 and Bacillus cereus ATCC 10876), Gram-negative bacteria: Bordetella bronchiseptica ATCC 4617, Escherichia coli ATCC 25922, Klebsiella pneumoniae ATCC 13883, Proteus mirabilis ATCC 12453, Salmonella typhimurium ATCC 14028 and Pseudomonas aeruginosa ATCC 9027, and fungi belonging to yeasts: Candida albicans ATCC 10231, Candida albicans ATCC 2091, Candida parapsilosis ATCC 22019, Candida glabrata ATCC 90030 and Candida krusei ATCC 14243. The microorganisms belonging to ATCC originated from American Type Culture Collection, routinely used for the evaluation of antimicrobials. All the used microbial cultures were first subcultured on nutrient agar or Sabouraud agar at 35°C for 18-24 h or 30°C for 24-48 h for bacteria […]
(§4) The surface of Mueller-Hinton agar (for bacteria) and RPMI 1640 with MOPS (for fungi) were inoculated with the suspensions of bacterial or fungal species. Microbial suspensions were prepared in sterile saline with an optical density of McFarland standard scale 0.5. The samples containing the compounds were dissolved in dimethyl sulfoxide (DMSO).
(§5) Furthermore, the bacterial and fungal suspensions put onto the Petri dishes with solid media containing 2 mg/mL of the tested compounds followed were incubated at 37°C for 24h and 30°C for 48h for bacteria and fungi, respectively.
(§6) The inhibition of microbial growth was estimated comparing with a control culture prepared without any tested sam- […]
(§7) antifungal compounds, respectively.
(§8) Subsequently, MIC (Minimal Inhibitory Concentration) of the compounds was examined by the microdilution broth method, using their two-fold dilutions in Mueller-Hinton broth (for bacteria) and RPMI 1640 broth with MOPS (for fungi) prepared in the 96-well polystyrene plates. The final concentrations of the compounds ranged from 1000 to 0.488 µg/mL. Microbial suspensions were prepared in 0.85% NaCl with an optical density of 0.5 McFarland standard. Next each bacterial or fungal suspension was added per each well containing broth and various concentrations of the exam-ined compounds. After incubation, the MIC was assessed spectrophotometrically as the lowest concentration of the […]
(§9) Appropriate DMSO, growth and sterile controls were carried out. The medium with no tested substances was used as a control The MBC (Minimal Bactericidal Concentration) and MFC (Minimal Fungicidal Concentration) are defined as the lowest concentration of the compounds that is required to kill a particular bacterial or fungal species. The MBC/MFC was determined by removing the culture used for the MIC determination from each well and spotted onto the appro-priate agar medium. The plates were incubated under appropriate conditions for bacteria and fungi. The lowest com-pounds concentration with no visible growth observed was assessed as a bactericidal/fungicidal concentration. All the experiments were repeated three times and the representative data are presented.
(§10) 1. European Committee for Antimicrobial Susceptibility Testing (EUCAST) Determination of minimum inhibitory con-centrations (MICs) of antibacterial agents by broth dilution. EUCAST discussion document E. Dis 5.1. Clin. Microbiol.
(§11) 2. Clinical and Laboratory Standards Institute. Reference method for broth dilution antifungal susceptibility testing of […]

Candida spp. = assay: Broth microdilution, summary over reference yeasts; type: cell-based; conditions: for antifungal activity in words: reference yeasts from Candida spp.
Source text: as §1, §2, §3, §4, §5, §6, §7, §8, §9, §10, §11

[1] = system: Candida albicans ATCC 10231; assay: Broth microdilution MIC/MFC; type: cell-based
Source text: as §1, §2, §3, §4, §5, §6, §7, §8, §9, §10, §11

[2] = system: Candida albicans ATCC 2091; assay: Broth microdilution MIC/MFC; type: cell-based
Source text: as §1, §2, §3, §4, §5, §6, §7, §8, §9, §10, §11

[3] = system: Candida glabrata ATCC 90030; assay: Broth microdilution MIC/MFC; type: cell-based
Source text: as §1, §2, §3, §4, §5, §6, §7, §8, §9, §10, §11

[4] = system: Candida krusei ATCC 14243; assay: Broth microdilution MIC/MFC; type: cell-based
Source text: as §1, §2, §3, §4, §5, §6, §7, §8, §9, §10, §11

[5] = system: Candida parapsilosis ATCC 22019; assay: Broth microdilution MIC/MFC; type: cell-based
Source text: as §1, §2, §3, §4, §5, §6, §7, §8, §9, §10, §11

[6] = system: Bacillus subtilis ATCC 6633; assay: Broth microdilution MIC/MBC; conditions: ATCC6633
[7] = system: Staphylococcus aureus ATCC 25923; assay: Broth microdilution MIC/MBC; conditions: Staphylococcus aureus, ATCC25923
[8] = system: Staphylococcus aureus ATCC 29213; assay: Broth microdilution MIC/MBC; conditions: ATCC29213
[9] = system: Staphylococcus aureus ATCC 43300; assay: Broth microdilution MIC/MBC; conditions: ATCC43300 / MRSA
[10] = system: Staphylococcus epidermidis ATCC 12228; assay: Broth microdilution MIC/MBC; conditions: ATCC12228
[11] = system: Micrococcus luteus ATCC 10240; assay: Broth microdilution MIC/MBC; conditions: Micrococcus luteus, ATCC10240
[12] = system: Bacillus cereus ATCC 10876; assay: Broth microdilution MIC/MBC; conditions: Bacillus cereus, ATCC10876
[13] = Nakaseomyces glabratus, ATCC90030, read-out: MFC
[14] = Nakaseomyces glabratus, ATCC90030, read-out: MIC
[15] = Pichia kudriavzevii, ATCC14243, read-out: MIC
[16] = Lodderomyces parapsilosis, ATCC22019, read-out: MIC
[17] = Pichia kudriavzevii, ATCC14243, read-out: MFC
[18] = range over the reference Candida spp. strains

| Compound | antibacterial activity in words (Gram-positive bacteria) | antifungal activity in words (Candida spp.) | melting point | MIC [6] | MFC ([1]; ATCC10231, read-out: MFC) | MIC ([1]; ATCC10231, read-out: MIC) | MIC ([2]; ATCC2091, read-out: MIC) | MIC [3, 14] | MIC [4, 15] | MIC [5, 16] | MIC [7] | MIC [8] | MIC [9] | MIC [10] | MIC [11] | MIC [12] | MBC [7] | MBC [10] | MBC [11] | further results |
| --- | --- | --- | --- | --- | --- | --- | --- | --- | --- | --- | --- | --- | --- | --- | --- | --- | --- | --- | --- | --- |
| O=C(N/N=C/c1cccc([N+](=O)[O-])c1O)c1ccc(I)cc1 [Compound 22, N-[(2-hydroxy-3-nitrophenyl)methylidene]-4-iodobenzohydrazide] | No antimicrobial effect | no antifungal activity | 198 to 202 °C | – | – | – | – | – | – | – | – | – | – | – | – | – | – | – | – | – |
| C[C@@H]1[C@H](O)[C@@H](C)/C=C/C=C/CC/C=C/C=C/C=C/C=C/C(O[C@H]2O[C@H](C)[C@@H](O)[C@H](N)[C@@H]2O)CC2O[C@](O)(CC(O)C(O)CCC(O)CC(O)CC(O)CC(=O)O[C@H]1C)CC(O)C2C(=O)O (some centres unmarked) [NY*, nystatin, reference compound] | – | – | – | – | – | – | – | – | – | – | – | – | – | – | – | – | – | – | – | MFC [1]: 0.48 µg/mL (≈ 0.518 µM); MFC/MIC [1]: 1; MIC [1]: 0.48 µg/mL (≈ 0.518 µM); MFC [2]: 0.24 µg/mL (≈ 0.259 µM); MFC/MIC [2]: 1; MIC [2]: 0.24 µg/mL (≈ 0.259 µM); MFC [3]: 0.48 µg/mL (≈ 0.518 µM); MFC/MIC [3]: 2; MIC [3]: 0.24 µg/mL (≈ 0.259 µM); MFC [4]: 0.24 µg/mL (≈ 0.259 µM); MFC/MIC [4]: 1; MIC [4]: 0.24 µg/mL (≈ 0.259 µM); MFC [5]: 0.48 µg/mL (≈ 0.518 µM); MFC/MIC [5]: 2; MIC [5]: 0.24 µg/mL (≈ 0.259 µM) |
| CC1(C)S[C@@H]2[C@H](NC(=O)[C@H](N)c3ccccc3)C(=O)N2[C@H]1C(=O)O [APC, ampicillin, reference compound] | – | – | – | 62.5 µg/mL (≈ 179 µM) | – | – | – | – | – | – | – | – | – | – | – | – | – | – | – | – |
| O=C(N/N=C/c1cc(O)ccc1O)c1ccccc1I [Compound 11, N-[(2,5-dihydroxyphenyl)methylidene]-2-iodobenzohydrazide] | no antimicrobial effect | mild activity or were inactive | 211 to 214 °C | > 1000 µg/mL | > 1000 µg/mL | 1000 µg/mL (≈ 2620 µM) | > 1000 µg/mL | 1000 µg/mL (≈ 2620 µM) | > 1000 µg/mL | > 1000 µg/mL | > 1000 µg/mL | > 1000 µg/mL | > 1000 µg/mL | > 1000 µg/mL | > 1000 µg/mL | > 1000 µg/mL | – | – | – | MFC [3, 13]: > 1000 µg/mL |
| CO/N=C(\C(=O)N[C@@H]1C(=O)N2C(C(=O)O)=C(COC(N)=O)CS[C@H]12)c1ccco1 [CFX, cefuroxime, reference compound] | – | – | – | 15.6 µg/mL (≈ 36.8 µM) | – | – | – | – | – | – | 0.49 µg/mL (≈ 1.15 µM) | – | – | 0.24 µg/mL (≈ 0.566 µM) | 0.98 µg/mL (≈ 2.31 µM) | 31.2 µg/mL (≈ 73.6 µM) | – | – | – | – |
| NNC(=O)c1ccccc1I [Compound 4, 2-iodobenzohydrazide] | – | mild activity or were inactive | 182 to 189 °C | > 1000 µg/mL | > 1000 µg/mL | 1000 µg/mL (≈ 3820 µM) | > 1000 µg/mL | > 1000 µg/mL | 1000 µg/mL (≈ 3820 µM) | > 1000 µg/mL | 500 µg/mL (≈ 1910 µM) | > 1000 µg/mL | > 1000 µg/mL | 1000 µg/mL (≈ 3820 µM) | 1000 µg/mL (≈ 3820 µM) | > 1000 µg/mL | > 1000 µg/mL | > 1000 µg/mL | > 1000 µg/mL | MFC [4, 17]: > 1000 µg/mL |
| O=C(N/N=C/c1ccccc1O)c1cccc(I)c1 [Compound 16, N-[(2-hydroxyphenyl)methylidene]-3-iodobenzohydrazide] | no activity | – | 201 to 203 °C | – | – | – | – | – | – | – | – | – | – | – | – | – | – | – | – | – |
| O=C(N/N=C/c1cc(Cl)cc(I)c1O)c1ccccc1I [Compound 12, N-[(5-chloro-2-hydroxy-3-iodophenyl)methylidene]-2-iodobenzohydrazide] | – | moderate or mild | 215 to 220 °C | 1000 µg/mL (≈ 1900 µM) | > 1000 µg/mL | 500 µg/mL (≈ 950 µM) | 500 µg/mL (≈ 950 µM) | 250 µg/mL (≈ 475 µM) | 500 µg/mL (≈ 950 µM) | 1000 µg/mL (≈ 1900 µM) | 125 µg/mL (≈ 237 µM) | 1000 µg/mL (≈ 1900 µM) | 1000 µg/mL (≈ 1900 µM) | 250 µg/mL (≈ 475 µM) | 31.2 µg/mL (≈ 59.4 µM) | 500 µg/mL (≈ 950 µM) | > 1000 µg/mL | 500 µg/mL (≈ 950 µM) | 250 µg/mL (≈ 475 µM) | MFC ([2]; ATCC2091, read-out: MFC): > 1000 µg/mL; MFC [3, 13]: > 1000 µg/mL; MFC [4, 17]: > 1000 µg/mL; MFC ([5]; Lodderomyces parapsilosis, ATCC22019, read-out: MFC): > 1000 µg/mL; MIC (Gram-positive bacteria; range over the reference Gram-positive bacteria, read-out: MIC): 31.2 to 1000 µg/mL (≈ 59.4 to 1900 µM); MFC (Candida spp.; [18]): ≥ 1000 µg/mL; MIC (Candida spp.; [18]): 250 to 1000 µg/mL (≈ 475 to 1900 µM); MBC [8]: > 1000 µg/mL; MBC [9]: > 1000 µg/mL; MBC [6]: > 1000 µg/mL; MBC [12]: > 1000 µg/mL |
| O=C(N/N=C/c1cccc([N+](=O)[O-])c1O)c1ccccc1I [Compound 7, N-[(2-hydroxy-3-nitrophenyl)methylidene]-2-iodobenzohydrazide] | – | mild activity or were inactive | 240 to 245 °C | 1000 µg/mL (≈ 2430 µM) | > 1000 µg/mL | 1000 µg/mL (≈ 2430 µM) | > 1000 µg/mL | > 1000 µg/mL | > 1000 µg/mL | > 1000 µg/mL | 500 µg/mL (≈ 1220 µM) | > 1000 µg/mL | > 1000 µg/mL | 125 µg/mL (≈ 304 µM) | 1000 µg/mL (≈ 2430 µM) | > 1000 µg/mL | > 1000 µg/mL | 1000 µg/mL (≈ 2430 µM) | > 1000 µg/mL | MBC [6]: > 1000 µg/mL |
